Assay results reported in patent US20040234962A1, “Multicoated or multilayer entrapment matrix for protein biosensor” (priority 2003, published 2004).

Assay: Fluorescence intensity of NBD-GGBP-CMC in presence and absence of glucose
Assay type: biochemical
Conditions: 100 nM preparation, 20 mM glucose; FIG. 6
Procedure: Covalent attachment was performed by activating carboxymethyl groups on the hydrogel polymer (CMC) with a mixture of N-hydroxysuccinimide (NHS) and N-ethyl-N′-(dimethylaminopropyl) carbodiimide (EDC). This forms an intermediate that is reactive to amines. NHS (100 mM) and EDC (400 mM) in water were mixed in a 1:1 vol:vol ratio. An equal volume of hydrogel polymer (25 mg/mL CMC in H2O) and the EDC/NHS mixture were combined, and incubated at room temperature for 15 to 30 minutes. The unreacted EDC and NHS were removed from the hydrogel polymer by eluting the polymer from a NAP-5 column. Varying amounts of activated hydrogel polymer were combined with the fluorescently-labeled GGBP (in this example, the NBD-A213C/L238C-GGBP-His6 mutant). The activated hydrogel polymer and protein were gently mixed, at room temperature, for 1 to 2 hours. […] An absorbance scan of solution not retained by the 100 kDa filter indicated no unattached protein remained. […] Activity of the NBD-GGBP-CMC was determined by fluorescence intensity measurement of the NBD-GGBP-CMC in the presence of high concentration glucose (20 mM) and in the absence of glucose. Thus, 100 nM preparations of the NBD-GGBP-CMC, as well as unattached NBD-GGBP (control) were measured before and after the addition of glucose (FIG. 6). […]

NBD-GGBP-CMC: NBD-labeled GGBP randomly covalently attached to carboxymethyl cellulose hydrogel polymer via EDC/NHS
signal in the presence of glucose compared to the absence of glucose: strong signal
